Data: patent publication EP4664463A1, “COMPUTER-IMPLEMENTED METHOD FOR OLFACTORY PROPERTY PREDICTION” (Givaudan SA, priority 2024, dated 2025)

Legend:
[1] = biological target: T1, OR14J1 (Homo sapiens, UniProt Q9UGF5); experiment: Activation of modified OR14J1 (SEQ ID NO: 221), library hit and dose-response; type: cell-based; conditions: SEQ ID 221
T1 construct: expressed in transfected cells; host or cells: HEK293T stably expressing human RTP1S(V227I) and RTP2(L220R) (general method)
Experimental: Parallel transfection experiments were conducted with all these plasmids (n = 408) and cells expressing the different OR were stimulated with one given ligand at a time, tested at the maximal, clearly non-cytotoxic concentration. In total 26 different ligands were tested on the full library of class II receptors.
Table 16. Ligands tested on the full library of OR and cognate receptors identified for these ligands

[2] = biological target: T2, OR5A2 (Homo sapiens, UniProt Q8NGI9); experiment: Luciferase dose-response, wild-type vs changed C-terminus (SEQ ID NO: 86); type: cell-based
T2 construct: expressed in transfected cells; host or cells: HEK293T cells with stably integrated human RTP1S (V227I) and RTP2 (L220R)
T2 sequence (Q8NGI9 1-324): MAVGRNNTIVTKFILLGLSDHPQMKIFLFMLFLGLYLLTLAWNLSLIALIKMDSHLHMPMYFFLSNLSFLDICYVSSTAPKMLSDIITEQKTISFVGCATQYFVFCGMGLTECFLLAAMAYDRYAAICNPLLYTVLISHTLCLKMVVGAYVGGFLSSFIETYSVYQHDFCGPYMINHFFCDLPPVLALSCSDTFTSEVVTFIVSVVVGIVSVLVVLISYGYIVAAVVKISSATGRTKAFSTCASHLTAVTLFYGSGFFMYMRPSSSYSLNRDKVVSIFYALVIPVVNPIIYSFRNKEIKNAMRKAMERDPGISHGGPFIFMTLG
Text: (§1) To create an expression plasmid, an OR coding sequence fused at the end of TM7 to the desired C-terminus sequence was synthesized by a DNA synthesis service provider (BioCat GmbH, Germany) and inserted into pcDNA3.1(+) (Invitrogen, MA, USA) downstream of the CMV promoter sequence (SEQ ID NO: 82) using BamHI and Notl restriction sites. All the synthetic OR nucleotide sequences described below in Examples 1-15 further contained at their N-terminus a nucleotide sequence encoding a signal peptide (mmLucy-FLAG-rho, SeQ ID NOs: 80, 81) and at the C-terminus the bgh terminator sequence (SEQ ID NO: 83). All the OR expression plasmids also contain a Kozak sequence (GCCACC) between the BamHI restriction site and the start codon of the signal peptide. These plasmids thus contain a constitutively expressed OR gene.

[3] = biological target: T3, OR5A2 (Homo sapiens, UniProt Q8NGI9); experiment: as above; type: cell-based; remark: listed apart in the source
T3 construct: expressed in transfected cells; host or cells: HEK293T cells with stably integrated human RTP1S (V227I) and RTP2 (L220R)
T3 sequence (Q8NGI9 with tags, fused parts or gaps): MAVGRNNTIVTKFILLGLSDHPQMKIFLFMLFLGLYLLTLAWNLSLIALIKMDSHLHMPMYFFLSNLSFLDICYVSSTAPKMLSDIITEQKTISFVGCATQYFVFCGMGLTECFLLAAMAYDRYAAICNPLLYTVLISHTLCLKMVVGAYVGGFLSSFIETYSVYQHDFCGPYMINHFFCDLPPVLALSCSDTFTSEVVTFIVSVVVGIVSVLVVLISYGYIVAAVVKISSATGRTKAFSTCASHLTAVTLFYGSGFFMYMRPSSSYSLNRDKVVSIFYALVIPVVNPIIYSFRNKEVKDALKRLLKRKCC
Text: as §1

[4] = system: OR5A2; experiment: as above; type: cell-based, human
Text: as §1

[5] = system: OR56A4; experiment: cell-based; type: cell-based, human
Text: as §1
(§2) Activation of OR56A4 by acids of different chain length was further tested. […] Replacing the wild-type with the C-terminal sequence of the functional OR51 E1 did reduce activity. However, using the optimized sequence form Examples 1-5 led to a strong signal and much lower detection threshold upon addition of all three acids.

[6] = biological target: T4, OR56A4 (Homo sapiens, UniProt Q8NGH8, T299N); experiment: cell-based; type: cell-based
T4 construct: expressed in transfected cells; host or cells: HEK293T stably expressing human RTP1S(V227I) and RTP2(L220R)
Text: as §1, §2

[7] = biological target: T5, OR56A4 (Homo sapiens, UniProt Q8NGH8); experiment: cell-based; type: cell-based
T5 construct: expressed in transfected cells; host or cells: HEK293T stably expressing human RTP1S(V227I) and RTP2(L220R)
T5 sequence (Q8NGH8 1-313): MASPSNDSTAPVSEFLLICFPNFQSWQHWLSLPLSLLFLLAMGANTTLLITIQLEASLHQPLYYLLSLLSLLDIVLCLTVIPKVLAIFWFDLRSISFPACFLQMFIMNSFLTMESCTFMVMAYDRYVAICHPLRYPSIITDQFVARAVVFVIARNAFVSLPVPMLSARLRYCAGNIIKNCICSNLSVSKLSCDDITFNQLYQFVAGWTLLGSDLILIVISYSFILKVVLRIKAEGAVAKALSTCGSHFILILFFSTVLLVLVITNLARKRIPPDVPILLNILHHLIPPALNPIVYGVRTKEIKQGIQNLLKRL
Text: as §1, §2

[8] = biological target: T6, OR5AN1 (Homo sapiens, UniProt Q8NGI8); experiment: Chimeric OR5AN1 with C-terminal sequence of OR1N2 (luciferase); type: cell-based
T6 construct: expressed in transfected cells; host or cells: HEK293T stably expressing human RTP1S(V227I) and RTP2(L220R)
Text: Similarly, the C-terminal sequence of OR5AN1 was replaced with the C-terminal sequence of the ambrettolide receptor OR1 N2.

[9] = biological target: T7, OR2T4 (Homo sapiens, UniProt Q8NH00, D328E/G331D/M330K); experiment: cell-based; type: cell-based; conditions: OR2T4 with SEQ ID NO: 86
T7 construct: expressed in transfected cells; host or cells: HEK293T cells stably expressing human RTP1S (V227I) and RTP2 (L220R)
T7 sequence (Q8NH00 with tags, fused parts or gaps D328E/M330K/G331D): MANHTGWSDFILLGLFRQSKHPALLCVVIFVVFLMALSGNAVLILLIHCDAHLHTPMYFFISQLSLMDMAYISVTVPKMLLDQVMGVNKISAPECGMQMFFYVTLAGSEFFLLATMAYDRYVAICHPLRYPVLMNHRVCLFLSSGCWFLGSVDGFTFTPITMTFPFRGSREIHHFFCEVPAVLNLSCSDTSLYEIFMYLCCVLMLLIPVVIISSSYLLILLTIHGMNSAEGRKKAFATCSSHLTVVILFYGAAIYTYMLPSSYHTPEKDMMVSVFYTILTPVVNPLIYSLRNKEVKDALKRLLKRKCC
Text: as §1

[10] = system: OR2T11; experiment: cell-based; type: cell-based, human
Text: as §1

[11] = biological target: T8, OR2T11 (Homo sapiens, UniProt Q8NH01); experiment: cell-based; type: cell-based
T8 construct: expressed in transfected cells; host or cells: HEK293T stably expressing human RTP1S(V227I) and RTP2(L220R)
Text: as §1
T8 sequence (Q8NH01 whole entry): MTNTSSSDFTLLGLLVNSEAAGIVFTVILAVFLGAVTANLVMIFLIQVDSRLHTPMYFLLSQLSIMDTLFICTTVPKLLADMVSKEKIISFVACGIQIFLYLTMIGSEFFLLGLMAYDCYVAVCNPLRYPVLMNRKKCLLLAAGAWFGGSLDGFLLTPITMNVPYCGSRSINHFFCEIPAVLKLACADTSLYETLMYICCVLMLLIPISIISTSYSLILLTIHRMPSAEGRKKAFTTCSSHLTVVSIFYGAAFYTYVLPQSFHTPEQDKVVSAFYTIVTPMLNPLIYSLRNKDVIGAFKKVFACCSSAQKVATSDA

[12] = biological target: T9, OR2T11 (Homo sapiens, UniProt Q8NH01); experiment: cell-based; type: cell-based; remark: listed apart in the source
T9 construct: expressed in transfected cells; host or cells: HEK293T stably expressing human RTP1S(V227I) and RTP2(L220R)
Text: as §1
T9 sequence (Q8NH01 with tags, fused parts or gaps): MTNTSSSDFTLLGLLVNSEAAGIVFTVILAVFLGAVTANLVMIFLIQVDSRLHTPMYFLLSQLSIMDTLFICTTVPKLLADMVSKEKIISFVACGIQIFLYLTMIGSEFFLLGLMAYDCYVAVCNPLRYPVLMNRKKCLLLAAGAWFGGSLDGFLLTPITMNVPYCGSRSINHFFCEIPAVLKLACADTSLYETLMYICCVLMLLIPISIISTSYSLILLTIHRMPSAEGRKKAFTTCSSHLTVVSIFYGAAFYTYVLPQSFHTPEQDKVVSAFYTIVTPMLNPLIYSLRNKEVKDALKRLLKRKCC

[13] = biological target: T10, OR5A1 (Homo sapiens, UniProt Q8NGJ0); experiment: Luciferase dose-response, wild-type vs changed C-terminus (SEQ ID NO: 86); type: cell-based
T10 construct: expressed in transfected cells; host or cells: HEK293T cells stably expressing human RTP1S (V227I) and RTP2 (L220R)

[14] = system: OR5A1; experiment: as above; type: cell-based, human
[15] = biological target: T11, OR5A1 (Homo sapiens, UniProt Q8NGJ0, I300V); experiment: as above; type: cell-based
T11 construct: expressed in transfected cells; host or cells: HEK293T cells stably expressing human RTP1S (V227I) and RTP2 (L220R)

[16] = biological target: T12, OR10J5 (Homo sapiens, UniProt Q8NHC4); experiment: OR10J5 (SEQ ID NO: 86) dose-response of isomers, EC20% relative to positive control; type: cell-based; conditions: 20 % of positive control (100µM Mahonial); OR10J5 with SEQ ID NO: 86
T12 construct: expressed in transfected cells; host or cells: HEK293T cells stably expressing human RTP1S (V227I) and RTP2 (L220R)
T12 sequence (Q8NHC4 with tags, fused parts or gaps): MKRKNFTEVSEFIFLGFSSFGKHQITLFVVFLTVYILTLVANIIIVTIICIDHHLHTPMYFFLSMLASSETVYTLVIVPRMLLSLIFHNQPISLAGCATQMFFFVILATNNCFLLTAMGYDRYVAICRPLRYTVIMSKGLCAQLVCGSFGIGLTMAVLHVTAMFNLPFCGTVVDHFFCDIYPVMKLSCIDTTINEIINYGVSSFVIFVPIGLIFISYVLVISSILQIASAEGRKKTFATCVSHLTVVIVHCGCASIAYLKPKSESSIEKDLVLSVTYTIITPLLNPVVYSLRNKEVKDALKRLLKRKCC
Text: Once a strong ligand is known for a given OR and the concentration of that ligand for maximal OR activation, this ligand (tested at its maximal inducing concentration) can be introduced as a positive control into the experiment, and fold-luciferase can be reported as % activation of the positive control according to the following formula: % activation = (Fold luciferase activation test compound−1)/(Fold luciferase activation positive control−1) × 100 [formula]
Activation of OR10J5 with the C-terminal domain of SEQ ID NO: 86 by (S,E)-10-hydroxy-4,8-dimethyldec-4-enal or (R,E)-10-hydroxy-4,8-dimethyldec-4-enal was measured in a dose-response analysis.
Potency of the two tested OR10J5 ligands is expressed as the EC20% value, which is the concentration that leads to a 20 % increase of the luciferase activity relative to the positive control (100µM, Mahonial; (4E)-9-hydroxy-5,9-dimethyl-4-Decenal). […] Because of the difference in EC20%, a much lower concentration of the (S,E)-isomer is needed to activate the receptor compared to the concentration needed of the (R,E)-isomer. […] This example further illustrates the usefulness of the improved assay to determine the most odor-active isomers.

[17] = Potency EC50, changed C-term SEQ ID NO: 86

T11 sequence (Q8NGJ0 with tags, fused parts or gaps I300V): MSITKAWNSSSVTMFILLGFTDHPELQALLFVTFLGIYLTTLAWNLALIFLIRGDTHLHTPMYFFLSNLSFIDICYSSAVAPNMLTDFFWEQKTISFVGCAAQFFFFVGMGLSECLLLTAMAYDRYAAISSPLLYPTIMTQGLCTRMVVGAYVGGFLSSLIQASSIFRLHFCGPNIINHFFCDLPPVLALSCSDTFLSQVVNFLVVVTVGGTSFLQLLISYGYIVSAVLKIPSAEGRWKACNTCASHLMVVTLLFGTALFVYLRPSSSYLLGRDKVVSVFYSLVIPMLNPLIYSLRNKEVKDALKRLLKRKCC
T4 sequence (Q8NGH8 with tags, fused parts or gaps T299N): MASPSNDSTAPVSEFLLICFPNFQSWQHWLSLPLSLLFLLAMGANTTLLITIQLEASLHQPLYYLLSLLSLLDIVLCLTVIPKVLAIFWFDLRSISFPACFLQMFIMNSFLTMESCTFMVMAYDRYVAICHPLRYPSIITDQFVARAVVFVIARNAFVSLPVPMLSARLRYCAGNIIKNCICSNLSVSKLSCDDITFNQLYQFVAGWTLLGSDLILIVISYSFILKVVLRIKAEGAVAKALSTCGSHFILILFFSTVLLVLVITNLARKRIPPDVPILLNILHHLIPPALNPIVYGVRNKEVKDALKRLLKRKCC
T6 sequence (Q8NGI8 with tags, fused parts or gaps limits assumed): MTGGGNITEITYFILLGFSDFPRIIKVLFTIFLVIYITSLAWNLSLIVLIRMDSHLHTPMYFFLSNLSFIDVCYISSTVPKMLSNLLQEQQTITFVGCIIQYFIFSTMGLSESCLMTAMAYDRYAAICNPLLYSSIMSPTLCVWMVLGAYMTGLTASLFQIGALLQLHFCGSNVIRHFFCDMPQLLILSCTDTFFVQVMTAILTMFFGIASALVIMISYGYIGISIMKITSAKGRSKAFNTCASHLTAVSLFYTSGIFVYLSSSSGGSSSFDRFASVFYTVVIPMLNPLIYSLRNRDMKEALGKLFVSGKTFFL
T1 sequence (Q9UGF5 with tags, fused parts or gaps): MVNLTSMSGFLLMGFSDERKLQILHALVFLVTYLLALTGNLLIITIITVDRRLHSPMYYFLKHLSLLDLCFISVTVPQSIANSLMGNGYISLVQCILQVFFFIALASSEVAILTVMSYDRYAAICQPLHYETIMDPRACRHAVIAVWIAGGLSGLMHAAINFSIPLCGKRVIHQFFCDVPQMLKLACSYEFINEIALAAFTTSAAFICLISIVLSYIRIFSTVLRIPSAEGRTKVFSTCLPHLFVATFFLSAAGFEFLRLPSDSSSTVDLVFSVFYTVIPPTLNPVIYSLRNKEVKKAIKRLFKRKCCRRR

CC(C)(O)[Si](C1CC1)(C1CC1)C1CC1 [2-(tricyclopropylsilyl)propan-2-ol]
activation of OR14J1 [1]: activate OR14J1

CC1COCc2cc3c(cc21)C(C)(C)C(C)C3(C)C (stereo not shown) [Galaxolide]
EC50 ([2]; Potency EC50, wild-type): > 31 µM
Detection threshold; concentration for 2-fold induction ([2]; wild-type): n.i. (>> 31) µM
activation of the wild-type receptor ([2]; wild-type OR5A2): No activation
concentration at which activation occurs ([3]; OR5A2 with SEQ ID NO: 86): < 0.01 µM
EC50 [3, 17]: 0.1 µM
Detection threshold; concentration for 2-fold induction ([3]; changed C-term. SEQ ID NO: 86): 0.0016 µM
Comments on efficacy [4]: No induction wild-type
Fold-improvement potency [4]: >300
Fold-improvement threshold [4]: >20000

CCCCCCCCCCC(=O)O [Undecanoic acid]
Fold-improvement potency [5]: 5.1
Fold-improvement threshold [5]: 13.5
Detection threshold; concentration for 2-fold induction [6]: 3.2 µM
EC50 ([6]; changed C-term SEQ ID NO: 86, read-out: Potency EC50): 22 µM
Detection threshold; concentration for 2-fold induction [7]: 43 µM
activation of wild-type OR56A4 ([7]; wild-type): activated at high concentration
EC50 ([7]; wild-type, read-out: Potency EC50): 114 µM

CC(=O)c1c(C)c([N+](=O)[O-])c(C(C)(C)C)c([N+](=O)[O-])c1C [Musk ketone]
functional response [8]: not showing any functional response

C=CCSSCC=C [Diallyl disulfide]
ligands identified in screening of sulfur odorants [9]: good ligands
Comments on efficacy [10]: No induction wild-type
Fold-improvement potency [10]: >>40
Fold-improvement threshold [10]: >100
EC50 ([11]; Potency EC50, wild-type): > 200 µM
Detection threshold; concentration for 2-fold induction ([11]; wild-type): >200 µM
EC50 [12, 17]: 6.51 µM
Detection threshold; concentration for 2-fold induction ([12]; changed C-term. SEQ ID NO: 86): 2.03 µM

CC(=O)/C=C/C1=C(C)CCCC1(C)C [Beta-ionone]
EC50 [13]: 5.5 µM
Detection threshold; concentration for 2-fold induction ([13]; wild-type): 19.1 µM
Comments on efficacy [14]: 4-fold lower maximal induction for wild-type
Fold-improvement potency [14]: 1.8
Fold-improvement threshold [14]: 5.9
EC50 [15]: 3.1 µM
Detection threshold; concentration for 2-fold induction ([15]; changed C-term. SEQ ID NO: 86): 3.2 µM

C/C(=C\CC[C@H](C)CCO)CCC=O [(S,E)-10-hydroxy-4,8-dimethyldec-4-enal]
EC20% [16]: 10.1 µM
